From US20130123326A1, “ALLOSTERIC BINDING COMPOUNDS” (REGION MIDTJYLLAND, priority 2009, published 2013)

System: Balb/cJ male mice
Assay: Forced swim test (FST)
Format: in vivo
Details: 15 mg/kg allosteric compound + 5 mg/kg (subactive) escitalopram, intraperitoneally 30 min prior to FST; seven minutes scoring period
Procedure: FIGS. 5A and 5B. Effect of allosteric compound in the mouse forced swim test (FST). Drugs were dissolved in 10% β-2-hydroxy-cyclodextrine. Male BalB/c were injected intraperitoneally with 500 μl SSRI alone or in combination with allosteric compound 30 min prior to FST (n=8). Vehicle treated animals each received 500 μl 10% 13-2-hydroxy-cyclodextrine. […] FIG. 5B depicts the effect of 5 mg/(kg bodyweight) of escitalopram alone and in combination with 15 mg/(kg bodyweight) of the allosteric compound of Example 1 (denoted ALN10 in figure). […]
FST is a behavioral model widely used to assess antidepressant-like activity in mice Porsholt et al, 1978). […] The total duration of immobility within a seven minute test period, is the main parameter measured. […]
Male BalB/c were injected intraperitoneally with 500 μl SSRI alone or in combination with allosteric compound 30 min prior to the swimming session (n=6). […] Swim sessions were videofilmed and analyzed by a blind scorer using stop watch, or by analyzing software (Ethovision, Noldus). The parameter measured was amount of time spent in a state of immobility, including small movements to keep balance and head over water. […]
FIGS. 5A and 5B gives the results from the forced swim test for the compound of Example 1. […] The dose of SSRI was chosen to be the highest sub-active concentration determined. […]

| Structure (SMILES) | immobility time in FST, combination with escitalopram |
| --- | --- |
| CCOC(=O)c1cccc2ccccc12 [Example 1, 1-Naphthoic Acid Ethyl Ester] | significantly reduced immobility time |

Same assay, conditions: 15 mg/kg allosteric compound + 5 mg/kg (subactive) fluoxetine, intraperitoneally 30 min prior to FST; seven minutes scoring period

| Structure (SMILES) | immobility time in FST, combination with fluoxetine |
| --- | --- |
| CCOC(=O)c1cccc2ccccc12 [Example 1, 1-Naphthoic Acid Ethyl Ester] | significantly reduced immobility time |

Target: hSERT (Homo sapiens, UniProt P31645)
Assay: Dissociation assay with [3H]-citalopram and hSERT membrane preparations
Format: binding
Details: not given
Procedure: Dulbecco's modified Eagle's medium, fetal bovine serum, trypsin, and penicillin/streptomycin were purchased from Invitrogen. Cell culture flasks were from NUNC. MicroScint-20 scintillation mixture was from Packard. [^3H]-Citalopram (85 Ci/mmol) was a gift from H. Lundbeck A/S (Valby, Denmark). Fugene-6 transfection reagent was from Roche Molecular Biochemicals. All chemicals are commercially available. Stock solutions of the allosteric ligands were prepared as 100 mM in EtOH.
The pcDNA3 plasmid vector containing the hSERT gene was used for transfection.
17.5 μl Fugene-6 (Roche Molecular Biochemicals) were mixed with 280 μl Dulbecco's modified Eagle's medium, and incubated at room temperature for 5 minutes. 10 μg of hSERT plasmid were added and the mixture was further incubated at least 15 minutes. […] The cells were plated at 35% confluency in a 150 mm dish, and grown at 37° C. for 64 h. Prior to harvesting the dish was rinsed in PBS. Cells were harvested with a cell scraper in buffer 1 (50 mM Tris-base, 150 mM NaCl, 20 mM EDTA, pH 7.4). After centrifugation (3000 g at 4° C. for 10 mins), cells were suspended and homogenized with an IKA Ultra-Turrax from Rose Scientific Ltd (Edmonton, Alberta, Canada) for 20 s in buffer 1. Membranes were pelleted by ultracentrifugation (12 000 g at 4° C. for 15 min) and homogenization was repeated in buffer 1. Finally, after ultracentrifugation (12000 g, 4° C., 15 min) membranes were resuspended in 1 ml buffer 3 (50 mM Tris-base, 120 mM NaCl, 5 mM KCl, pH 7.4) and stored at −80° C.
Dissociation Assay with [^3H]-Citalopram and Membrane Preparations.
SERT-[^3H]-citalopram complex was formed by incubating hSERT membrane preparation and radioligand in buffer 3 during a 60 min incubation at 4° C. Radioligand was present at a concentration 10 times the Kd value. The time kinetic of dissociation was followed by adding 10 μL complex solution to 250 μL buffer 3 in 96-well plates and incubating subsequently for increasing time intervals at RT. Reactions were terminated by filtration through GF/C glass-fibre filters (Unifilter, Perkin Elmer Life Sciences), preincubated with 40 μl 0.5% polyethyleneimine, using a Pachard Bell cell harvester, and subsequently washed three times with water. Filters were soaked in 40 μl Microscint 20 scintillation liquid (Pachard Bell). Bound radioactivity was determined by direct counting of plates using a Packard Bell microplate scintillation counter. Dissociation curves were obtained by plotting residual binding vs. time of dissociation.
The concentrations of allosteric compound in the dissociation buffer range from 400-0.2 μM.
The relative off-rate is expressed as the off-rate of the radioligand at a given concentration of allosteric compound, normalized to the off-rate of radioligand in the absence of allosteric compound.
The maximum stabilization factor is defined as the estimated upper plateau of the sigmoidal response curve, and describes how many folds the off-rate of bound radioligand from SERT can be attenuated in the presence of increasing concentrations of allosteric compound in the dissociation buffer.

hSERT, sequence (P31645 whole entry): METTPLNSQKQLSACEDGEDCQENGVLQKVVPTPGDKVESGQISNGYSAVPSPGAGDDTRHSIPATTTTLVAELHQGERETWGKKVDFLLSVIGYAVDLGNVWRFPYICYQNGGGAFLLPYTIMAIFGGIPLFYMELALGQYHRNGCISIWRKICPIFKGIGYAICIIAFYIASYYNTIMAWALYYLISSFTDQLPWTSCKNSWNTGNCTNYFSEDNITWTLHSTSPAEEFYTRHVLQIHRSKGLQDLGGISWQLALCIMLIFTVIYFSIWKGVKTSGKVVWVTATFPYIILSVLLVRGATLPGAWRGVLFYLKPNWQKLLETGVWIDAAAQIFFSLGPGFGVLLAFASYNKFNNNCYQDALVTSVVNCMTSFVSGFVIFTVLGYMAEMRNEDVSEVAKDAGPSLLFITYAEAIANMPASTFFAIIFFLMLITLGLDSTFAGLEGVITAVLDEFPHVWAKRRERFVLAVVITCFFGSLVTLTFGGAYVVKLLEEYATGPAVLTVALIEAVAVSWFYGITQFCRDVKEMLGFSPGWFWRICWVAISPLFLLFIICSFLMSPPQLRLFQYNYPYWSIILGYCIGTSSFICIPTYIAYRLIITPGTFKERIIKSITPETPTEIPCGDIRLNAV

| Structure (SMILES) | EC50 [µM] |
| --- | --- |
| CCOS(=O)(=O)c1cccc2ccccc12 [reference compound] | 120 |

Same assay, conditions: concentration of allosteric compound inducing 50% attenuation of the off-rate of the radioligand from SERT; 10 μM fluoxetine in dissociation buffer; read-out: EC50

| Structure (SMILES) | EC50 [µM] |
| --- | --- |
| O=C(OCCO)c1cccc2ccccc12 [Example 6, 1-Naphthoic Acid 2-Hydroxyethyl Ester] | 14.5 |
| COC(=O)c1cccc2ccccc12 [Example 2, 1-Naphthoic Acid Methyl Ester] | 29 |
| CCCCSc1cccc2ccccc12 [Example 14, 1-Butyl-Sulfanyl-1-Naphthalene] | 12 |
| Sc1cccc2ccccc12 [reference compound] | > 1000 |
| CCNC(=O)c1cccc2ccccc12 [Example 10, 1-Naphthoic Acid Ethylamide] | 74 |
| CCOC(=O)n1ccc2ccc(C)cc21 [Example 27, 6-Methyl-Indole-1-Carboxylic Acid Ethyl Ester] | 34 |
| CCOC(=O)n1nnc2ccccc21 [Example 29, Benzotriazole-1-Carboxylic Acid Ethyl Ester] | 61 |
| C=CCOC(=O)c1cccc2ccccc12 [Example 8, 1-Naphthoic Acid 2-Propenyl Ester] | 16 |
| CSc1cccc2ccccc12 [Example 12, Methyl-[1]Naphthyl Sulphide] | 17 |
| CCCOc1cccc2ccccc12 [Example 21, 1-Propoxy-Naphthalene] | 46 |
| C#CCOC(=O)c1cccc2ccccc12 [Example 9, 1-Naphthoic Acid 2-Propynyl Ester] | 15 |
| CCOC(=O)n1ccc2ccc(Cl)cc21 [Example 28, 6-Chloro-Indole-1-Carboxylic Acid Ethyl Ester] | 31 |
| CC(C)OC(=O)c1cccc2ccccc12 [Example 4, 1-Naphthoic Acid Isopropyl Ester] | 9.8 |

Other lines, results leading:

| EC50 [µM] | Structure (SMILES) |
| --- | --- |
| 9.6 | O=C(OC1CCCC1)c1cccc2ccccc12 [Example 32, 1-Naphthoic Acid Cyclopentyl Ester] |
| 9.4 | CCSc1cccc2ccccc12 [Example 13, Ethyl-[1]Naphthyl Sulphide] |
| 5 | CCOC(=O)n1cc(C)c2ccccc21 [Example 35, 3-Methyl-Indole-1-Carboxylic Acid Ethyl Ester] |
| 4.7 | CCCSc1cccc2ccccc12 [Example 11, 1-Propyl-Sulfanyl-1-Naphthalene] |
| 4.6 | OCCSc1cccc2ccccc12 [Example 15, 2-Hydroxyethyl-1-Naphthyl Sulphide] |
| 3.3 | CCOC(=O)c1cccc2ccccc12 [Example 1, 1-Naphthoic Acid Ethyl Ester] |
| 3.2 | C=CCSc1cccc2ccccc12 [Example 17] |
| 2.1 | CCCOC(=O)c1cccc2ccccc12 [Example 3, 1-Naphthoic Acid Propyl Ester] |
| 1.3 | CCOC(=O)n1ccc2ccccc21 [Example 24, Indole-1-Carboxylic Acid Ethyl Ester] |
| 1.2 | C#CCSc1cccc2ccccc12 [Example 16, 3-Ethynyl-Sulfanyl-1-Naphthalene] |

Same assay, conditions: estimated upper plateau of sigmoidal response curve: how many folds the off-rate of bound radioligand from SERT can be attenuated; N/A = No activity

| Structure (SMILES) | Max. Stability (maximum stabilization factor) |
| --- | --- |
| O=C(OCCO)c1cccc2ccccc12 [Example 6, 1-Naphthoic Acid 2-Hydroxyethyl Ester] | 20 |
| COC(=O)c1cccc2ccccc12 [Example 2, 1-Naphthoic Acid Methyl Ester] | 7.4 |
| CCOS(=O)(=O)c1cccc2ccccc12 [reference compound] | 3.1 |
| CCCCSc1cccc2ccccc12 [Example 14, 1-Butyl-Sulfanyl-1-Naphthalene] | 3.6 |
| CCNC(=O)c1cccc2ccccc12 [Example 10, 1-Naphthoic Acid Ethylamide] | 1.8 |
| CCOC(=O)n1ccc2ccc(C)cc21 [Example 27, 6-Methyl-Indole-1-Carboxylic Acid Ethyl Ester] | 15 |
| CCOC(=O)n1nnc2ccccc21 [Example 29, Benzotriazole-1-Carboxylic Acid Ethyl Ester] | 5.4 |
| C=CCOC(=O)c1cccc2ccccc12 [Example 8, 1-Naphthoic Acid 2-Propenyl Ester] | 11 |
| CSc1cccc2ccccc12 [Example 12, Methyl-[1]Naphthyl Sulphide] | 10 |
| CCCOc1cccc2ccccc12 [Example 21, 1-Propoxy-Naphthalene] | 3.9 |
| C#CCOC(=O)c1cccc2ccccc12 [Example 9, 1-Naphthoic Acid 2-Propynyl Ester] | 13 |
| CCOC(=O)n1ccc2ccc(Cl)cc21 [Example 28, 6-Chloro-Indole-1-Carboxylic Acid Ethyl Ester] | 8.8 |
| CC(C)OC(=O)c1cccc2ccccc12 [Example 4, 1-Naphthoic Acid Isopropyl Ester] | 16 |

More lines, now with the values ahead:

| Max. Stability (maximum stabilization factor) | Structure (SMILES) |
| --- | --- |
| 10 | O=C(OC1CCCC1)c1cccc2ccccc12 [Example 32, 1-Naphthoic Acid Cyclopentyl Ester] |
| 8.3 | CCSc1cccc2ccccc12 [Example 13, Ethyl-[1]Naphthyl Sulphide] |
| 6 | CCOC(=O)n1cc(C)c2ccccc21 [Example 35, 3-Methyl-Indole-1-Carboxylic Acid Ethyl Ester] |
| 6.4 | CCCSc1cccc2ccccc12 [Example 11, 1-Propyl-Sulfanyl-1-Naphthalene] |
| 10.2 | OCCSc1cccc2ccccc12 [Example 15, 2-Hydroxyethyl-1-Naphthyl Sulphide] |
| 9.1 | CCOC(=O)c1cccc2ccccc12 [Example 1, 1-Naphthoic Acid Ethyl Ester] |
| 6.3 | C=CCSc1cccc2ccccc12 [Example 17] |
| 17 | CCCOC(=O)c1cccc2ccccc12 [Example 3, 1-Naphthoic Acid Propyl Ester] |
| 9 | CCOC(=O)n1ccc2ccccc21 [Example 24, Indole-1-Carboxylic Acid Ethyl Ester] |
| 10.3 | C#CCSc1cccc2ccccc12 [Example 16, 3-Ethynyl-Sulfanyl-1-Naphthalene] |
